In patent US8937058B2, “17-hydroxy-19-nor-21-carboxylic acid-steroid γ-lactone derivative, use thereof, and medicament containing the derivative” (priority 2007, dated 2015):
Read-outs that look alike come from different tables or passages of the source.

What was measured:
[1] = target: T1, mineralocorticoid receptor (Homo sapiens (Human), UniProt P08235); assay: Antimineralocorticoid action by transactivation test (MDCK luciferase reporter cells); type: cell-based; conditions: in-vitro transactivation, 1 nM aldosterone; for IC50: read-out: Mineralocorticoid receptor Antagonism IC50
T1 sequence (P08235 whole entry): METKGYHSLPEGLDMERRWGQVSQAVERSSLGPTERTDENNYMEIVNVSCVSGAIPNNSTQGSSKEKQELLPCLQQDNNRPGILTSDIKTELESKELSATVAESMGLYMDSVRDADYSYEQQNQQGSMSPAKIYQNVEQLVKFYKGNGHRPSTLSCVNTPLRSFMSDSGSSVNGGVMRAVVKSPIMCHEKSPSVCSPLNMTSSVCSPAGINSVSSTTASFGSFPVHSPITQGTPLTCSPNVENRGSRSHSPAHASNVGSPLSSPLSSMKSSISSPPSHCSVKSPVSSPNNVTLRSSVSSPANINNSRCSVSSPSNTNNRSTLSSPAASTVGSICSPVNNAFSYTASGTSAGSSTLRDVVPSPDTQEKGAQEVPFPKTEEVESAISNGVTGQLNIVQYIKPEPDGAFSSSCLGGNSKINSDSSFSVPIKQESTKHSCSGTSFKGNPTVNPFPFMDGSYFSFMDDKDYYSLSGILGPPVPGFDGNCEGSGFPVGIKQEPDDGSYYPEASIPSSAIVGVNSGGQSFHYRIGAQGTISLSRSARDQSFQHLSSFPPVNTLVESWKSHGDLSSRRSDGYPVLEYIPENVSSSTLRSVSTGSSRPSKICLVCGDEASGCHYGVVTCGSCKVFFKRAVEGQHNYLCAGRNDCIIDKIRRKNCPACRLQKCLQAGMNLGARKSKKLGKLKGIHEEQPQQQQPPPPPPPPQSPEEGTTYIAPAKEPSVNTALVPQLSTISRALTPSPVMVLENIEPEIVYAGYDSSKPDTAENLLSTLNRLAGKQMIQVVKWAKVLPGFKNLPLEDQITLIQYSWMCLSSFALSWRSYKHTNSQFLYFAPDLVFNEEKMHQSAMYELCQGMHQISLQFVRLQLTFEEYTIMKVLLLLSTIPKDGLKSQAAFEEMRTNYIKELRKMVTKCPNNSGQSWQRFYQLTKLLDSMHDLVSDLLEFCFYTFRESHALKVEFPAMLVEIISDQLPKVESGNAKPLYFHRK
Protocol: 5. Determination of Antimineralocorticoid Action by Means of Transactivation Tests:
The antimineralocorticoid activity of the test substances was determined as for the transactivation tests described above.
The following modifications were undertaken: In this case reporter cell lines were used (MDCK cells) that express the human mineralocorticoid receptor, and transiently contain a reporter construct that contains luciferase under the control of a steroid hormone-responsive promoter.
For determination of antimineralocorticoid efficacy, 1 nM aldosterone (SIGMA A-6628, Lot 22H4033) was added to the cells, to achieve almost maximum stimulation of the reporter gene. Inhibition of the effect indicated a mineralocorticoid-antagonistic action of the substances (Table 2; for comparison, corresponding values for drospirenone (A)).

[2] = target: T1, mineralocorticoid receptor; assay: Mineralocorticoid receptor binding test (displacement of 3H-aldosterone, cytosol from Hi5 insect cells); conditions: reference substance 3H-aldosterone
Protocol: 2. Mineralocorticoid Receptor Binding Test:
The test was carried out as in 1., with the following modifications: cytosol from mineralocorticoid receptor-expressing insect cells (Hi5) was used, and the reference substance was ^3H-aldosterone.

[3] = target: progesterone receptor (Homo sapiens (Human), UniProt P06401); conditions: for Progesterone receptor (PR) Competition factor: CF of 1 = affinity of progesterone, CF >1 lower affinity; for CF PR/CF MR: ratio of the competition factors CF(PR) and CF(MR); for IC50: read-out: Progesterone receptor (PR) IC50, receptor binding, 3H-progesterone displacement
Sequence of progesterone receptor (P06401 whole entry, species assumed): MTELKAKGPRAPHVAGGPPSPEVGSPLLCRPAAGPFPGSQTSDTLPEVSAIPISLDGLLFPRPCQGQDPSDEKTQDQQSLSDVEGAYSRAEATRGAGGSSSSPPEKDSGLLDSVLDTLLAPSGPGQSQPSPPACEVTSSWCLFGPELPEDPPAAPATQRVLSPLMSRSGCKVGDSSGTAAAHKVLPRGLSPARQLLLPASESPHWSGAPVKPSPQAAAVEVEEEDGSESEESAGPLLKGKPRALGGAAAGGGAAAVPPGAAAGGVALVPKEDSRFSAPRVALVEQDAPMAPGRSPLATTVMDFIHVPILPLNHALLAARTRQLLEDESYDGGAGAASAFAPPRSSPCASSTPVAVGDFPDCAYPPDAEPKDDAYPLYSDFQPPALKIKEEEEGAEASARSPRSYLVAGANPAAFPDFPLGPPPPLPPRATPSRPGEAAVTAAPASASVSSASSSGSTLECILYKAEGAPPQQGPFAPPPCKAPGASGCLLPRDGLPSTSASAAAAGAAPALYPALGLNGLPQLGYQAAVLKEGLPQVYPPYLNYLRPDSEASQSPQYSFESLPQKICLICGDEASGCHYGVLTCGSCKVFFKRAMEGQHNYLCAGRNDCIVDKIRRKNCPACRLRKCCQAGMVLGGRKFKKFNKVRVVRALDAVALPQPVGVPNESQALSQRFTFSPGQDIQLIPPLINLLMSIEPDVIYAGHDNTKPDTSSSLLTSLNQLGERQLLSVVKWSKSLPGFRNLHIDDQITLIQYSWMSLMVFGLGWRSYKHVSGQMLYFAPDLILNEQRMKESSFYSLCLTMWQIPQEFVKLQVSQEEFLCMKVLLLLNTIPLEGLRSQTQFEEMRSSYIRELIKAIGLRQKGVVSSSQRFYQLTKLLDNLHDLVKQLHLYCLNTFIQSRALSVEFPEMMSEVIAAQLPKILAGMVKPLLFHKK
Protocol: Progesterone Receptor Binding Test:
Using cytosol from progesterone receptor-expressing insect cells (Hi5), competitive binding to the progesterone receptor was determined from the ability to displace ^3H-progesterone as reference substance from the receptor.

[4] = target: T2, androgen receptor (Homo sapiens (Human), UniProt P10275); assay: cell-based; conditions: for Androgen receptor Agonism efficacy / Androgen receptor Antagonism efficacy: in-vitro transactivation, PC3 cells; for Androgen receptor Antagonism efficacy: 0.05 nM R1881
T2 sequence (P10275 whole entry, species assumed): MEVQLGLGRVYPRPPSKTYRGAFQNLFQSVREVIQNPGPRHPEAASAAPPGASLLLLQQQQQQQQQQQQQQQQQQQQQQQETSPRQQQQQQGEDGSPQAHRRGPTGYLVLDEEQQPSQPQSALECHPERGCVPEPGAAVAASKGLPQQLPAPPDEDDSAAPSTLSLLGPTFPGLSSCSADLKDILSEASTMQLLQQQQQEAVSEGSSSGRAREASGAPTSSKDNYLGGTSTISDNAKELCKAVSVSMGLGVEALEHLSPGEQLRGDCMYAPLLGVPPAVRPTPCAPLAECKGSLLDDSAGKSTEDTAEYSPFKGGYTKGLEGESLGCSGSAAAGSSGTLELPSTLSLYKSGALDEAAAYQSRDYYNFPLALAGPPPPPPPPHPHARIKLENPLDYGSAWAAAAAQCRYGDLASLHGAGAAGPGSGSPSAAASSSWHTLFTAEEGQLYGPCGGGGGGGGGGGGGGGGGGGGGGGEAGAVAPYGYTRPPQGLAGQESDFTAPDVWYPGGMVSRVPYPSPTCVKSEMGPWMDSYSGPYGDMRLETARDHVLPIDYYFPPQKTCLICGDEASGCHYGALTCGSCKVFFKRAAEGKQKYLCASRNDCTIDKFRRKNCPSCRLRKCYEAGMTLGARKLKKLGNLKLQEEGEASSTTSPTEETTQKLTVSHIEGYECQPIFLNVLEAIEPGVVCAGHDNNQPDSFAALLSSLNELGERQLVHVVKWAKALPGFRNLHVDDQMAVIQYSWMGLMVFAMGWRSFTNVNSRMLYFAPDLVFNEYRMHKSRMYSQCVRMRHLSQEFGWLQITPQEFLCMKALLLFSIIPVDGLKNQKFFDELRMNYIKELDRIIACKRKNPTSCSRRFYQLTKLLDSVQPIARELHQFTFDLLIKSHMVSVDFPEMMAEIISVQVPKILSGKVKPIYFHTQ
Protocol: 6. Determination of Androgenic/Antiandrogenic Action by Means of Transactivation Tests:
The androgenic/antiandrogenic action of the test substances was determined as for the transactivation tests described above.
The following modifications were made: In this case reporter cell lines were used (PC3 cells) that express the androgen receptor, and a reporter construct that contains luciferase under the control of a steroid hormone-responsive promoter.
For determination of the antiandrogenic efficacy, 0.05 nM R1881 was added to the cells, in order to achieve almost maximum stimulation of the reporter gene.

[5] = target: T2, androgen receptor; conditions: for IC50: read-out: Androgen receptor IC50, receptor binding, 3H-testosterone displacement; for Androgen receptor Competition factor: reference substance 3H-testosterone
Protocol: 3. Androgen Receptor Binding Test:
The test was carried out as in 1., with the following modifications: cytosol from androgen receptor-expressing insect cells (Hi5) was used, and the reference substance was ^3H-testosterone.

[6] = target: fusion protein from the PR-ligand-binding domain and a Gal4-transactivation domain (Homo sapiens (Human), UniProt P06401); assay: cell-based; conditions: for Progesterone receptor Agonism EC50 / Progesterone receptor Agonism efficacy: in-vitro transactivation, CHO K1 reporter cells; for Progesterone receptor Agonism EC50: 16 hours
Sequence of fusion protein from the PR-ligand-binding domain and a Gal4-transactivation domain (P06401 679-913): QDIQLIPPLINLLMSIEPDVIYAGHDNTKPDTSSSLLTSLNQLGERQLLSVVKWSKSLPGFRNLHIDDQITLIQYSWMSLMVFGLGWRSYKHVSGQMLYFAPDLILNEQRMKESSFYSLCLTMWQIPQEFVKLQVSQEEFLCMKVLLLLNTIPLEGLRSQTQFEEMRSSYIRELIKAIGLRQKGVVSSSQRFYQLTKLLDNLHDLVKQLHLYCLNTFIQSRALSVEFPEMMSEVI
Protocol: 4. Determination of Progestational Action by Means of Transactivation Tests:
The test compounds were added eight hours later, and the cells were incubated with the compounds for 16 hours. The tests were carried out in triplicate. At the end of incubation the medium containing the effector was removed and replaced with lysis buffer. After luciferase assay substrate (Promega, #E1501) had been added, the 96-well plates were then put in a microplate luminometer (Pherastar, BMG Labtech), and the luminescence was measured. The IC50 values were evaluated using software for calculating dose-effect relations.

| SMILES | Mineralocorticoid receptor Antagonism efficacy [1] [%] | IC50 [1] [nM] | Mineralocorticoid receptor (MR) Competition factor [2] | Progesterone receptor (PR) Competition factor [3] | CF PR/CF MR [3] | IC50 [3] [nM] | EC50 [4] [nM] | IC50 [4] [nM] | Androgen receptor Agonism efficacy [4] [%] | Androgen receptor Antagonism efficacy [4] [%] | IC50 [5] [nM] | Androgen receptor Competition factor [5] | Progesterone receptor Agonism EC50 [6] | Mineralocorticoid receptor Antagonism IC50 [1] | EC50 [6] [nM] | Progesterone receptor Agonism efficacy [6] [%] |
| --- | --- | --- | --- | --- | --- | --- | --- | --- | --- | --- | --- | --- | --- | --- | --- | --- |
| C[C@]12CC[C@H]3[C@@H](CCC4=C(Cl)C(=O)CC[C@@H]43)[C@@H]1CC[C@@]21C=CC(=O)O1 [Example 14, 4-Chloro-17β-hydroxy-19-nor-17α-pregna-4,20(Z)-dien-3-one-21-carboxylic acid γ-lactone] | 21.6 | 700 | 39.0 | 53.06 | 1.36 | 1200 | 100 | 70.5 | 22.74 | 63.26 | 140 | 7.5 | inactive | – | – | – |
| CC[C@]12CC[C@H]3[C@@H](CCC4=C(Cl)C(=O)CC[C@@H]43)[C@@H]1CC[C@@]21C=CC(=O)O1 [Example 13, 4-Chloro-17β-hydroxy-18-methyl-19-nor-17α-pregna-4,20(Z)-dien-3-one-21-carboxylic acid γ-lactone] | – | – | 47.0 | 28.06 | 0.60 | 750 | 57 | 12 | 33.71 | 44.18 | 170 | 8.3 | – | inactive | 1000 | 25.3 |
| CC[C@]12CC[C@H]3[C@@H]([C@H](C)CC4=CC(=O)CC[C@@H]43)[C@@H]1CC[C@@]21C=CC(=O)O1 (stereo in doubt) [Example 8A, 17β-Hydroxy-7α,18-dimethyl-19-nor-17α-pregna-4,20(Z)-dien-3-one-21-carboxylic acid γ-lactone] | 113.8 | 11 | 1.0 | 5.95 | 5.95 | 160 | 1.7 | 1000 | 78.75 | 5 | 43 | 1.3 | inactive | – | – | – |
| CC[C@]12CC[C@H]3[C@@H]([C@H](C4CC4)CC4=CC(=O)CC[C@@H]43)[C@@H]1CC[C@@]21C=CC(=O)O1 (stereo in doubt) [Example 11A, 17β-Hydroxy-7α-cyclopropyl-18-methyl-19-nor-17α-pregna-4,20(Z)-dien-3-one-21-carboxylic acid γ-lactone] | 88.8 | 230 | 2.4 | 21.03 | 8.76 | 500 | 10 | 16 | 41.38 | 34.45 | 94 | 3.4 | – | – | 120 | 47.7 |
| CC[C@@H]1CC2=CC(=O)CC[C@@H]2[C@H]2CC[C@@]3(C)[C@@H](CC[C@@]34C=CC(=O)O4)[C@H]12 (stereo in doubt) [Example 3A, 17β-Hydroxy-7α-ethyl-19-nor-17α-pregna-4,20(Z)-dien-3-one-21-carboxylic acid γ-lactone] | 55.9 | 360 | 8.7 | 54.22 | 6.23 | 1300 | 25 | 11 | 30.25 | 41.26 | 89 | 2.8 | – | – | 780 | 16.2 |
| C[C@]12CC[C@H]3[C@@H](CCC4=CC(=O)CC[C@@H]43)[C@@H]1CC1(CC1)[C@@]21C=CC(=O)O1 (stereo in doubt) [Example 5, 16,16-(1,2-Ethanediyl)-17β-hydroxy-19-nor-17α-pregna-4,20(Z)-dien-3-one-21-carboxylic acid γ-lactone] | 73.1 | 840 | 12.7 | 3.31 | 0.26 | 110 | 140 | 1000 | 37.8 | 5 | 310 | 33.8 | – | – | 13 | 46.9 |
